Assay results as given in patent US10973810B2, “Methods for the treatment of neurological disorders” (Yumanity Therapeutics, Inc., priority 2017, dated 2021).

What was measured:
ApoE4 = ApoE4 Alzheimer's disease yeast model, rescue of toxicity (OD600 growth); assay type: cell-based, Saccharomyces cerevisiae; conditions: 12-point dose; ApoE4 expression induced
Description: Strain ApoE-mga2Δ was generated by amplifying 1000 base pairs (bp) upstream and downstream of the MGA2 ORF in a strain in which MGA2 was deleted using a G418 (GENETICIN®) resistance cassette (kanMX) (Piotrowski et al. Proc. Natl. Acad. Sci. USA 112(12):E1490-1497, 2015) and transforming the resulting deletion cassette into the ApoE4 strain in the BY4741 (ATCC 201388) genetic background. The ApoE strain is described, for example, in International Patent Application Publication No. WO 2016/040794, which is incorporated herein by reference in its entirety.
Yeast were cultured using standard techniques in complete synthetic media (CSM) and yeast nitrogen base supplemented with 2% (w/v) carbon source (glucose, raffinose, or galactose) to regulate the expression of the toxic disease protein. An initial starter culture was inoculated in 3 mL CSM-Glucose media and incubated overnight in a 30° C. shaker incubator (225 rpm). Saturated morning cultures were then diluted 1:20 in fresh CSM-Raffinose media and grown for 6 h to an OD600 (optical density) of 0.4-0.8 at 30° C. with shaking. […]
(§1) After yeast delivery, assay plates were incubated under humidified conditions at 30° C. for 24 to 40 h. […] The growth of yeast was monitored by reading the OD600 of each well using a microplate reader (Perkin Elmer EnVision™). […]

yeast = assay: Yeast growth inhibition in control / wild-type condition (OD600); assay type: cell-based, Saccharomyces cerevisiae; conditions: ApoE4 strain under non-inducing conditions (raffinose); at concentrations just above Emax of rescue
Description: Strain GMYF was constructed from the ABC16/Green monster strain described in Suzuki et al. Nat. Methods 8(2):159-164, 2011. In this strain, YAP1 was deleted using a HIS3-MX6 cassette, and FLR1 was deleted using a NAT-MX6 cassette using standard methods. The knockout cassettes were PCR-amplified from plasmid templates (see, e.g., Bahler et al. Yeast 14(10):943-951, 1998; Longtine et al. Yeast 14(10):953-961, 1998) and transformed into yeast using lithium acetate-based transformation (Gietz et al. Methods Mol. Biol. 1205:1-12, 2014). The yap1::his3 deletion strain was selected on media lacking histidine and flr1::NAT on plates containing 100 μg/mL nourseothricin. All strains were confirmed by diagnostic PCR. Strain W303 pdr1Δ pdr3Δ was constructed from W303-1A (American Type Culture Collection (ATCC) 208352) by deleting PDR1 and PDR3 with kan-MX6 cassettes separately in MATa and MATa W303a isolates, mating, sporulating, and identifying the double deletion haploids by tetrad dissection and identification of non-parental ditype tetrads. Strain W-erg3 was derived from W303 pdr1 Δ pdr3Δ by deleting SNQ2 with NAT-MX6, YAP1 with HIS3-MX6, and ERG3 with BleMX. […]
as §1

[1] = tested on: cellular fatty acid desaturase activity (Ole1); assay: Quantitative lipid profiling of treated yeast cells by LC-MS/MS; assay type: cell-based, Saccharomyces cerevisiae
Protocol: FIGS. 8A-8D are graphs showing that treatment of yeast cells with the 1,2,4-oxadiazole Compound 2 inhibits lipid desaturation. Exponentially-growing wild-type yeast cells were treated with the indicated doses of the 1,2,4-oxadiazole Compound 2 for the indicated times before cellular lysis, lipid extraction, and analysis by global LC-MS/MS profiling. The relative abundance (fraction of total cellular lipid signal) after 1.5 h and 8 h of the most abundant saturated lipid, phosphatidylcholine 26:0, is depicted in FIGS. 8A and 8B, respectively. The relative abundance after 1.5 h and 8 h drug treatment of the most abundant lipid with 2 or more degrees of unsaturation, phosphatidylcholine 16:1; 18:1, is depicted in FIGS. 8C and 8D, respectively.
Overnight cultures of yeast strain W303 pdr1Δ pdr3Δ were diluted into CSM media with 2% (w/v) raffinose, OD600 0.25, and grown for 4 h before resuspending at an OD600 of 0.2 in CSM media with 2% (w/v) galactose and adding Compound 2 or DMSO at the indicated concentrations. Cells were grown for the indicated timepoints before centrifugation, washing once in PBS, and freezing pellets. Lipids were extracted from pellets by resuspending the pellets in 600 μL methanol, 300 μL water, and 400 μL chloroform, followed by cell lysis by vortexing with glass beads for 1 min. Samples were then centrifuged at 10,000×g for 10 min, and the bottom layer that formed (organic/lipids) was moved into a new tube and evaporated. Samples were then analyzed by LC/MS/MS using a Thermo Scientific Q Exactive™ Orbitrap™ coupled to a Dionex UltiMate® 3000 ultra-high performance liquid chromatography system, following the method described in Tafesse et al. PLoS Pathog. 11(10): e1005188, 2015.

yeast OLE1 = biological target: T1, yeast OLE1 (Saccharomyces cerevisiae, UniProt P21147, L450T/T449L); assay: Growth of yeast surviving solely on yeast OLE1; assay type: cell-based; conditions: 24 h
T1 construct: expressed in transfected cells; host or cells: S. cerevisiae ole1Δ strain (W303 pdr1Δ pdr3Δ background), plasmid pRS316 with TDH3 promoter and CYC1 terminator
Description: (§2) To generate yeast strains expressing SCD1 or SCD5 as the sole desaturase, the human SCD1 and SCD5 genes were cloned from cDNAs (Harvard PlasmID database Clone ID HsCD00340237 for SCD1 and HsCD00342695 for SCD5) into yeast plasmid pRS316 (ATCC 77145) between the yeast TDH3 promoter and the CYC1 terminator. The coding sequence of yeast OLE1 was also cloned into this plasmid). These clones were then transformed into the ole1d strain and plated on CSM-Ura media (CSM lacking uracil) with 2% glucose (w/v) and independent colonies were isolated and amplified.
(§3) For experiments using a plasmid-borne copy of Ole1, SCD1, or SCD5 (FIGS. 3B, 6, and 7), media lacking uracil (SX-Ura, where X is glucose, raffinose, or galactose), was used for all steps of the compound profiling protocol to ensure its maintenance throughout the assay.
(§4) After yeast delivery, assay plates were incubated under humidified conditions at 30° C. for 24 to 40 h. ApoE4 rescue experiments were stopped at 24 h, aSyn experiments at 40 h, Ole1 at 24 h, and SCD1/SCD5 at 40 h. The growth of yeast was monitored by reading the OD600 of each well using a microplate reader (Perkin Elmer EnVision™). For model rescue experiments, raw data were processed by background subtracting and calculating a fold-change relative to DMSO control [(EXP-0.035)/(DMSO-0.035)—where 0.035 is the OD600 contributed by an empty well containing 30 μL of media alone]. For growth inhibition of wild-type cells, raw data were processed by background subtracting and converting values to a percent of the nontreated condition for that strain [(EXP-0.035)/(DMSO-0.035)×100%].

human SCD1 = biological target: T2, human SCD1 (Homo sapiens, UniProt O00767); assay: Growth of humanized yeast surviving solely on human SCD1; assay type: cell-based; conditions: for half-maximal inhibitory concentration (IC50), SCD1 humanized strain: growth inhibition
T2 construct: host or cells: S. cerevisiae ole1Δ strain (W303 pdr1Δ pdr3Δ background), plasmid pRS316 with TDH3 promoter and CYC1 terminator
T2 sequence (O00767 1-359): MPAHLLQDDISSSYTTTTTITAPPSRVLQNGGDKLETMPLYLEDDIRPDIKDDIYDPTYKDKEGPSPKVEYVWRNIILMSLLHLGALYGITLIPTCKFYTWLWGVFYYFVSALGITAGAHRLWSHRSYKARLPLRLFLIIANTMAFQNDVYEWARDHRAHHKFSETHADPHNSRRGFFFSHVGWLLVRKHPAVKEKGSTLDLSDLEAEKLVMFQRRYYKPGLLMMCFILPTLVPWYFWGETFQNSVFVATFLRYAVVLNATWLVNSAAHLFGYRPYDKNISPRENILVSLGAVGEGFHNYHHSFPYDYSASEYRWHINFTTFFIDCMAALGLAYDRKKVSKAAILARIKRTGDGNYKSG
Description: The coding sequence of yeast OLE1 was also cloned into this plasmid). These clones were then transformed into the ole1d strain and plated on CSM-Ura media (CSM lacking uracil) with 2% glucose (w/v) and independent colonies were isolated and amplified.
as §3
After yeast delivery, assay plates were incubated under humidified conditions at 30° C. for 24 to 40 h. ApoE4 rescue experiments were stopped at 24 h, aSyn experiments at 40 h, Ole1 at 24 h, and SCD1/SCD5 at 40 h. The growth of yeast was monitored by reading the OD600 of each well using a microplate reader (Perkin Elmer EnVision™).

human SCD5 = biological target: T3, human SCD5 (Homo sapiens, UniProt Q86SK9); assay: Growth of humanized yeast surviving solely on human SCD5; assay type: cell-based; conditions: for half-maximal inhibitory concentration (IC50), SCD5 humanized strain: growth inhibition
T3 construct: host or cells: S. cerevisiae ole1Δ strain (W303 pdr1Δ pdr3Δ background), plasmid pRS316 with TDH3 promoter and CYC1 terminator
T3 sequence (Q86SK9 1-330): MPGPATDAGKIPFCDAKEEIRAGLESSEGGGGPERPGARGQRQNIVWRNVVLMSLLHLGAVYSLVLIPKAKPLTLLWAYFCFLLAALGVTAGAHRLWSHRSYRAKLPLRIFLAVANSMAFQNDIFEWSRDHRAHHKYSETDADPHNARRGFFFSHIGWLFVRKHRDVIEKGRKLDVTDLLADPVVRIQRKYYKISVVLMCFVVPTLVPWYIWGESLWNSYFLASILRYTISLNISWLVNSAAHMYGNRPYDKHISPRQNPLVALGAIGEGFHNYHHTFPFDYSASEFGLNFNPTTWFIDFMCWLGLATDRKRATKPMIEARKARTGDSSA
Description: as §2, §3, §4

T1 sequence (P21147 whole entry T449L/L450T): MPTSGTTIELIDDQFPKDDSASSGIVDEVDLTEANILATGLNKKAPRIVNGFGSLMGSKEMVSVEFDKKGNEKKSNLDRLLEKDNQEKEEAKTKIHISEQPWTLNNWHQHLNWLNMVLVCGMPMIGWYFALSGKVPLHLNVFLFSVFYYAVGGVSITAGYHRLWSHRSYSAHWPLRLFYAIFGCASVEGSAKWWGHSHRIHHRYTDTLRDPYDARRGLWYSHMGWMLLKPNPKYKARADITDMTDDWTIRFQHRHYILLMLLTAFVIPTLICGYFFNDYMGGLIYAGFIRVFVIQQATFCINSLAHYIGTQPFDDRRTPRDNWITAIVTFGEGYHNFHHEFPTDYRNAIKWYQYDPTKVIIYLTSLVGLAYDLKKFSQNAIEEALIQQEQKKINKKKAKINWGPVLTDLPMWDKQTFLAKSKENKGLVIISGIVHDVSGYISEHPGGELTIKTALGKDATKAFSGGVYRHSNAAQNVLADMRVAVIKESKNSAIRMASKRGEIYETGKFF

| Compound | growth of yeast strain expressing Ole1 (percent of DMSO-treated condition) (yeast OLE1) | half-maximal inhibitory concentration (IC50), SCD1 humanized strain (human SCD1) | half-maximal inhibitory concentration (IC50), SCD5 humanized strain (human SCD5) | other results |
| --- | --- | --- | --- | --- |
| COc1ccc(-c2noc(C3CCN(C(=O)CNC(=O)c4ccccc4)CC3)n2)cc1OC [Compound 1, N-(2-(4-(3-(3,4-dimethoxyphenyl)-1,2,4-oxadiazol-5-yl)piperidin-1-yl)-2-oxoethyl)benzamide] | – | – | – | rescue in ApoE4 model, dose-response curve (raw OD600) (ApoE4): bell-shaped dose-response curve; growth in control condition (yeast): growth decreased |
| Cc1nn(C)c2cc(-c3noc(C4CCN(C(=O)CNC(=O)c5ccccc5)CC4)n3)ccc12 [Compound 2, N-(2-(4-(3-(1,3-dimethyl-1H-indazol-6-yl)-1,2,4-oxadiazol-5-yl)piperidin-1-yl)-2-oxoethyl)benzamide] | – | – | – | lipid desaturation in yeast cells [1]: inhibited lipid desaturation; decrease in abundance of unsaturated lipid phosphatidylcholine 16:1, 18:1 ([1]; 8 h treatment, wild-type yeast): > 12 fold; increase in abundance of saturated lipid phosphatidylcholine 26:0 ([1]; after 8 h treatment, wild-type yeast): > 300 fold |
| CNC(=O)c1cccc(NC(=O)N2CCC(Oc3ccccc3Cl)CC2)c1 [Compound A939572] | resistant | low nanomolar | low nanomolar | – |
| C[C@@H]1C[C@@H]([C@H](O)CC2CC(=O)NC(=O)C2)C(=O)[C@@H](C)C1 [Cyclohexamide] | inhibited growth of all three strains with the same potency | – | – | growth of SCD1-expressing yeast (percent of DMSO-treated condition) (human SCD1; 40 h): inhibited growth of all three strains with the same potency; growth of SCD5-expressing yeast (percent of DMSO-treated condition) (human SCD5; 40 h): inhibited growth of all three strains with the same potency |
| Cc1nnc(-c2ccc(N3CCC(Oc4ccccc4C(F)(F)F)CC3)nn2)s1 [MF-438] | resistant | low nanomolar | low nanomolar | – |
| O=C(O)Cn1nnc(-c2cc(N3CCC(Oc4cc(F)ccc4Br)CC3)no2)n1 [MK-8245] | resistant | – | low nanomolar | – |
